Source: patent US20120231470A1, “METHODS AND SYSTEMS ASSOCIATED WITH DETECTION OF FATTY ACID ELONGATION IN A CELL” (priority 2011, published 2012)

What was measured:
[1] = tested on: fatty acid biosynthesis in B392 cells; test: High-throughput 96-well screen for fatty acid biosynthesis inhibitors; format: cell-based, Vibrio harveyi; settings: B392, 96-well plate; for Fluorescence ratio between non-treated cells and drug treated cells: C6N3 5 mM overnight, final drug concentrations 500, 50 or 5 μM, cerulenin at sub-bacteriostatic concentration; for Detection as fatty acid biosynthesis inhibitor in the high-throughput screen: FIG. 6
Protocol: In this example, a high-throughput cell-based antibiotic screen, which would identify fatty acid biosynthesis inhibitors, was implemented. B392 cells in a 96-well plate were treated with various concentrations of commercially available fatty acid biosynthesis inhibitors, including cerulenin (Ref. 8), bischloroanthrabenzoxocinone (Ref. 10), thiolactomycin (Ref. 11), and platensimycin (Ref. 2) as well as a number of arbitrarily chosen drugs (listed in TABLE 3).
In TABLE 3 above, rows of the 96-well plate are indicated by a letter and the columns are indicated by a number. Antibiotics labeled with a *, the wells contain 200× stocks of 10 mM and 1 mM of antibiotic in descending order. For bischloroanthrabenzoxocinone, thiolactomycin, and platensimycin, the wells only contain 200× stocks of 1 mM of antibiotic. For other antibiotics, the wells contain 200× stocks of 100 mM, 10 mM, and 1 mM of antibiotic in descending order.
B392 cells given no drug treatment served as the control. Cells were then fed with C6N3 and allowed to grow overnight. Extracellular C6N3 was washed away with 0.9% NaCl three times, and cellular lipids were click-reacted with 50 μM cyclooctyne-coumarin conjugate for 30 minutes at 37° C. Non-reacted cyclooctyne-coumarin conjugate was washed away with 0.9% NaCl three times, and cells were re-suspended in 0.9% NaCl to be analyzed by plate reader. […]. It should be noted that the same method described here in Example 3 can be used to identify compounds which enhance fatty acid biosynthesis. […].
In particular, B392 cells were grown in 150 mL cultures of synthetic media (Ref. 9) until OD 0.3 was reached. Cells were transferred (1 mL of the culture loaded into each well) to a 2 mL 96-well plate via a multi-pipette robot (this robot was used for most liquid transfers mentioned in this example). To each well, 5 μL of antibiotic from a 200× stock antibiotic plate in DMSO (TABLE 3) was introduced to create final treatment concentrations of 500 μM, 50 μM, and 5 μM. After 30 minutes, 10 μL of 500 mM C6N3 in DMSO was introduced to each well for a final treatment concentration of 5 mM. Cells were grown overnight, then spun down at 2000 g for 10 minutes. Supernatant was removed, and then non-incorporated C6N3 was washed from cells three times by re-suspending the cells in 1 mL of 0.9% NaCl, spinning the cells down at 2000 g for 10 minutes, and removing the supernatant. The cells were re-suspended in 200 μL of 50 μM cyclooctyne-coumarin conjugate in 0.9% NaCl and incubated at 37° C. for 30 minutes. Cells were collected and washed three more times with 1 mL of 0.9% NaCl to remove non-reacted cyclooctyne-coumarin conjugate, and cells re-suspended in 400 μL of 0.9% NaCl were analyzed by plate reader for fluorescence (excitation 380 nm, detection 500 nm) and cell density.

[2] = known (Ref 10); cited from earlier work
[3] = tested on: fatty acid elongation in V. harveyi B392; test: C6N3 incorporation/elongation assay, cyclooctyne-coumarin labeling, flow cytometry; format: cell-based, Vibrio harveyi; settings: C6N3 5 mM + cerulenin 10 μg/mL
Protocol: (§1) In particular, the cells were grown in 5 mL of synthetic media (Ref 9), and at OD 0.2, cerulenin was introduced to appropriate samples for a final treatment concentration of 10 μg/mL (sub-bacteriostatic). Then, at OD 0.3, C6N3 was introduced to appropriate samples for a final treatment concentration of 5 mM. After allowing the cells to grow in presence of C6N3 for 5 hours, the cells were spun down at 5000 g for 10 minutes, and the supernatant was removed. Non-incorporated C6N3 was washed from cells three times by re-suspending the cell pellet in 10 mL of 0.9% NaCl, spinning the cells down at 5000 g for 10 minutes, and removing the supernatant. The cells were re-suspended in 1 mL of 50 μM cyclooctyne-coumarin conjugate in 0.9% NaCl and incubated at 37° C. for 30 minutes. Cells were collected and washed three more times with 10 mL of 0.9% NaCl to remove non-reacted cyclooctyne-coumarin conjugate, and cells re-suspended in 2 mL of 0.9% NaCl were analyzed by plate reader (excitation 380 nm, detection 500 nm) or flow cytometry (excitation 407 nm, detection 450/40 bandpass filter).
(§2) In addition, the samples were analyzed by flow cytometry (FIG. 4)

[4] = tested on: fatty acid elongation in V. harveyi CY1723; test: as above; format: cell-based, Vibrio harveyi; settings: C6N3 5 mM + cerulenin 10 μg/mL
Protocol: as §1, §2

[5] = tested on: fatty acid elongation in V. harveyi strain CY1723; test: C6N3 incorporation/elongation assay, cyclooctyne-coumarin labeling, plate reader; format: cell-based, Vibrio harveyi; settings: C6N3 5 mM + cerulenin 10 μg/mL
Protocol: as §1, with “the supernatant. […] The cells” for “the supernatant. The cells”, “conjugate, and a fraction of the cells re-suspended” for “conjugate, and cells re-suspended”
In particular, the cells were grown in 5 mL of synthetic media (Ref 9), and at OD 0.2, cerulenin was introduced to appropriate samples for a final treatment concentration of 10 μg/mL (sub-bacteriostatic). […]

[6] = tested on: fatty acid elongation in Vibrio harveyi strain B392; test: as above; format: cell-based
Protocol: as §1, with “the supernatant. […] The cells” for “the supernatant. The cells”, “conjugate, and a fraction of the cells re-suspended” for “conjugate, and cells re-suspended”
as §1

## CC12C[C@@]34C=CC(=O)[C@@](C)(CCC(=O)Nc5c(O)ccc(C(=O)O)c5O)C3[C@H](CC1C4)O2 (stereo partly drawn) [platensimycin, Platensimycin]
[1]
  Fluorescence ratio between non-treated cells and drug treated cells: ~2.6
  Detection as fatty acid biosynthesis inhibitor in the high-throughput screen: can be detected

## COc1cc(C)c2c(c1)O[C@]1(C)Cc3cc4c(c(O)c3[C@H]2O1)C(=O)c1c(O)c(Cl)c(O)c(Cl)c1C4(C)C [Bischloroanthrabenzoxocinone]
[1]
  Detection as fatty acid biosynthesis inhibitor in the high-throughput screen: not detected
[2]
  Cell permeability: poor cell permeability

## C=C/C(C)=C/[C@@]1(C)SC(=O)C(C)=C1O [thiolactomycin, Thiolactomycin]
[1]
  Fluorescence ratio between non-treated cells and drug treated cells: ~4.0
  Detection as fatty acid biosynthesis inhibitor in the high-throughput screen: can be detected

## C/C=C/C/C=C/CCC(=O)[C@H]1O[C@H]1C(N)=O [cerulenin, Cerulenin]
[1]
  Fluorescence ratio between non-treated cells and drug treated cells: ~4.5
  Detection as fatty acid biosynthesis inhibitor in the high-throughput screen: can be detected
[3]
  Mean fluorescence: 2347
  Ratio (mean fluorescence of Entry 1 divided by mean fluorescence of the sample): 8.06
[4]
  Mean fluorescence: 1704
  Ratio (mean fluorescence of Entry 1 divided by mean fluorescence of the sample): 11.09
[5]
  Ratio (fluorescence/OD of Entry 1 divided by fluorescence/OD of the sample): 11.99
[5]; 5 hours
  Fluorescence/OD: 44069
[6]; B392, C6N3 5 mM + cerulenin 10 μg/mL, 5 hours, plate reader
  Fluorescence/OD: 45609
[6]; B392, C6N3 5 mM + cerulenin 10 μg/mL, plate reader
  Ratio (fluorescence/OD of Entry 1 divided by fluorescence/OD of the sample): 11.58
[6]; B392, C6N3 5 mM, cerulenin 10 μg/mL, FIG. 3
  Fold decrease in fluorescence of cerulenin-treated culture compared to the same culture untreated: about seven-fold
[6]; B392 and CY1723 cells treated with C6N3 and cerulenin, TABLES 1 and 2
  Inhibition of fatty acid biosynthesis / azide incorporation in lipids: inhibited fatty acid biosynthesis efficiently
